Tests used:
Hepatotoxicity [1] = test system: Hepatotoxicity;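 on HepSE Combined Scores: combined hepatic side effect score as listed in the training data of the Drug Induced Liver Injury Prediction System (DILIps)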;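 on HepSE cholecystitis: Cholecystitis-related hepatic side effect score drawn from the DILIps (drug-induced liver injury prediction) training data set; call rule not given here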;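 on HepSE cholelithiasis: hepatic side effect score for cholelithiasis, drawn from the DILIps training data for predicting drug-induced liver injury; call rule not given here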;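 on HepSE elevated liver function tests: hepatic side effect score for raised liver function tests, as recorded in the DILIps training set used for predicting drug-induced liver injury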;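 on HepSE hepatitis: Hepatitis-related hepatic side effect score taken from the training data of DILIps, a prediction system for drug-induced liver injury; call rule not given here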;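 on HepSE hepatomegaly: hepatic side effect score for hepatomegaly, taken from the training set of the DILIps drug-induced liver injury prediction system; call rule not given here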
Hepatotoxicity [2] = test system: Hepatotoxicity; remark: listed apart in the source;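 on HepSE Combined Scores: combined hepatic side effect score as listed in the training data of the Drug Induced Liver Injury Prediction System (DILIps)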;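 on HepSE cholecystitis: Cholecystitis-related hepatic side effect score drawn from the DILIps (drug-induced liver injury prediction) training data set; call rule not given here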;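 on HepSE cholelithiasis: hepatic side effect score for cholelithiasis, drawn from the DILIps training data for predicting drug-induced liver injury; call rule not given here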;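 on HepSE elevated liver function tests: hepatic side effect score for raised liver function tests, as recorded in the DILIps training set used for predicting drug-induced liver injury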;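 on HepSE hepatitis: Hepatitis-related hepatic side effect score taken from the training data of DILIps, a prediction system for drug-induced liver injury; call rule not given here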;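 on HepSE hepatomegaly: hepatic side effect score for hepatomegaly, taken from the training set of the DILIps drug-induced liver injury prediction system; call rule not given here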
Hepatotoxicity [3] = test system: Hepatotoxicity; remark: listed apart in the source;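 on HepSE Combined Scores: combined hepatic side effect score as listed in the training data of the Drug Induced Liver Injury Prediction System (DILIps)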;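 on HepSE cholecystitis: Cholecystitis-related hepatic side effect score drawn from the DILIps (drug-induced liver injury prediction) training data set; call rule not given here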;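 on HepSE cholelithiasis: hepatic side effect score for cholelithiasis, drawn from the DILIps training data for predicting drug-induced liver injury; call rule not given here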;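 on HepSE elevated liver function tests: hepatic side effect score for raised liver function tests, as recorded in the DILIps training set used for predicting drug-induced liver injury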;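 on HepSE hepatitis: Hepatitis-related hepatic side effect score taken from the training data of DILIps, a prediction system for drug-induced liver injury; call rule not given here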;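 on HepSE hepatomegaly: hepatic side effect score for hepatomegaly, taken from the training set of the DILIps drug-induced liver injury prediction system; call rule not given here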
Hepatotoxicity [4] = test system: Hepatotoxicity; remark: listed apart in the source;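 on HepSE cholecystitis: Cholecystitis-related hepatic side effect score drawn from the DILIps (drug-induced liver injury prediction) training data set; call rule not given here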;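 on HepSE cholelithiasis: hepatic side effect score for cholelithiasis, drawn from the DILIps training data for predicting drug-induced liver injury; call rule not given here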;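 on HepSE elevated liver function tests: hepatic side effect score for raised liver function tests, as recorded in the DILIps training set used for predicting drug-induced liver injury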;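 on HepSE hepatitis: Hepatitis-related hepatic side effect score taken from the training data of DILIps, a prediction system for drug-induced liver injury; call rule not given here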;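 on HepSE hepatomegaly: hepatic side effect score for hepatomegaly, taken from the training set of the DILIps drug-induced liver injury prediction system; call rule not given here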
Hepatotoxicity [5] = test system: Hepatotoxicity; remark: listed apart in the source
Hepatotoxicity [6] = test system: Hepatotoxicity; remark: listed apart in the source
Hepatotoxicity [7] = test system: Hepatotoxicity; remark: listed apart in the source
Hepatotoxicity [8] = test system: Hepatotoxicity; remark: listed apart in the source
Hepatotoxicity [9] = test system: Hepatotoxicity; remark: listed apart in the source
Hepatotoxicity [10] = test system: Hepatotoxicity; remark: listed apart in the source
Hepatotoxicity [11] = test system: Hepatotoxicity; remark: listed apart in the source
Hepatotoxicity [12] = test system: Hepatotoxicity; remark: listed apart in the source
Hepatotoxicity [13] = test system: Hepatotoxicity; remark: listed apart in the source
Hepatotoxicity [14] = test system: Hepatotoxicity; remark: listed apart in the source

Compound | HepSE_hepatitis (Hepatotoxicity [1]) | HepSE_elevated liver function tests (Hepatotoxicity [2]) | HepSE_cholecystitis (Hepatotoxicity [3]) | HepSE_bilirubinemia (Hepatotoxicity [4]) | HepSE_hepatomegaly (Hepatotoxicity [5]) | HepSE_cholelithiasis (Hepatotoxicity [6]) | HepSE_Combined Scores (Hepatotoxicity [7]) | HepSE_hepatic failure (Hepatotoxicity [8]) | HepSE_liver disease (Hepatotoxicity [9]) | HepSE_liver fatty (Hepatotoxicity [10]) | HepSE_liver function tests abnormal (Hepatotoxicity [11]) | HepSE_hepatic necrosis (Hepatotoxicity [12]) | HepSE_jaundice (Hepatotoxicity [13]) | HepSE_cirrhosis (Hepatotoxicity [14]) | further results
O=NN(CCCl)C(=O)NCCCl [CARMUSTINE] | 0 | 0 | 0 | 0 | 0 | 0 | 1 | 0 | 0 | 0 | 1 | 0 | 0 | 0 | –
CC(C[N+](C)(C)C)OC(N)=O (stereo unspecified) [BETHANECHOL] | – | – | – | – | – | – | – | – | – | – | – | – | – | – | HepSE_hepatitis (Hepatotoxicity [1]; Liver): 0; HepSE_elevated liver function tests (Hepatotoxicity [2]; Liver): 0; HepSE_cholecystitis (Hepatotoxicity [3]; Liver): 0; HepSE_bilirubinemia (Hepatotoxicity [4]; Liver): 0; HepSE_hepatomegaly (Hepatotoxicity [5]; Liver): 0; HepSE_cholelithiasis (Hepatotoxicity [6]; Liver): 0; HepSE_Combined Scores (Hepatotoxicity [7]; Liver): 0; HepSE_hepatic failure (Hepatotoxicity [8]; Liver): 0; HepSE_liver disease (Hepatotoxicity [9]; Liver): 0; HepSE_liver fatty (Hepatotoxicity [10]; Liver): 0; HepSE_liver function tests abnormal (Hepatotoxicity [11]; Liver): 0; HepSE_hepatic necrosis (Hepatotoxicity [12]; Liver): 0; HepSE_jaundice (Hepatotoxicity [13]; Liver): 0; HepSE_cirrhosis (Hepatotoxicity [14]; Liver): 0
C[C@]12CCC(=O)C=C1CC[C@H]1[C@@H]3CC[C@](O)(C(=O)CO)[C@@]3(C)C[C@H](O)[C@@]12F [FLUDROCORTISONE] | 0 | 0 | 0 | 0 | 0 | 0 | 0 | 0 | 0 | 0 | 0 | 0 | 0 | 0 | –
C[C@]12COC(=O)C[C@@H]1CC[C@@H]1[C@@H]2CC[C@@]2(C)[C@H]1CC[C@]2(C)O [OXANDROLONE] | 0 | 0 | 0 | 0 | 0 | 0 | 2 | 0 | 0 | 0 | 0 | 1 | 1 | 0 | –
O=P(O)(O)C(Sc1ccc(Cl)cc1)P(=O)(O)O [TILUDRONIC ACID] | 0 | 0 | 0 | 0 | 0 | 0 | 0 | 0 | 0 | 0 | 0 | 0 | 0 | 0 | –
CC(=O)O[C@H]1C[C@@H]2CC[C@@H]3[C@H](CC[C@@]4(C)[C@H]3C[C@H]([N+]3(C)CCCCC3)[C@@H]4OC(C)=O)[C@@]2(C)C[C@@H]1N1CCCCC1 [VECURONIUM] | 0 | 0 | 0 | 0 | 0 | 0 | 0 | 0 | 0 | 0 | 0 | 0 | 0 | 0 | –
CARBOPLATIN | 0 | 0 | 0 | 0 | 0 | 0 | 1 | 0 | 0 | 0 | 1 | 0 | 0 | 0 | –
CC(C)(C)NCC(O)c1ccc(O)c(CO)n1 (stereo unspecified) [PIRBUTEROL] | 0 | 0 | 0 | 0 | 0 | 0 | 0 | 0 | 0 | 0 | 0 | 0 | 0 | 0 | –
O=C(O)CCCc1ccc(N(CCCl)CCCl)cc1 [CHLORAMBUCIL] | 0 | 0 | 0 | 0 | 0 | 0 | 1 | 0 | 0 | 0 | 0 | 0 | 1 | 0 | –

From ChEMBL document CHEMBL1909294, “Translating clinical findings into knowledge in drug safety evaluation--drug induced liver injury prediction system (DILIps)” (PLoS Comput Biol, 2011)
